The source made the active and inactive calls.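 The calls were made as follows: active = half-maximal inhibitory concentration below a set limit; inactive = the rest.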

This is an account of results in PubChem BioAssay AID2127 (Sanford-Burnham Center for Chemical Genomics, 2009).

The target of this test is E3 ubiquitin-protein ligase SIAH1 (Homo sapiens) (UniProt Q8IUQ4). Kind of test: displacement of labeled plectin from Siah-1 – biochemical, fluorescence polarization, fluorescein-plectin, artefact control for Siah-1 antagonist project, dose response (AID 2127). Conditions: Siah-1/fluorescein-plectin binding.
One may read the IC50 as the midpoint of a concentration-inhibition curve. Turning to `CCc1nnc(NS(=O)(=O)c2ccc(NC(=S)NC(=O)/C=C/c3ccc(C(C)C)cc3)cc2)s1`, the IC50 is > 200 µM (inactive). Turning to `O=S(=O)(Nc1cc2nc3ccccc3nc2n1Cc1ccccc1)c1ccc(Cl)cc1`, the IC50 is > 200 µM (inactive).

Turning to `CC1(C)OC(C)(C)/C(=C/Nc2ccc(O)cc2)C1=O`, the IC50 is > 200 µM (inactive). Take `Cc1ccc(S(=O)(=O)NN=C2C3CC4CC(C3)CC2C4)cc1[N+](=O)[O-]`: the IC50 was > 200 µM (inactive). Turning to `CCCCn1c(NS(=O)(=O)c2ccccc2)c(C(=O)OCC)c2nc3ccccc3nc21`, the IC50 is > 200 µM (inactive). To `Cc1cc(C)n2ncc(C(=O)Nc3ccc4c(c3)OCO4)c2n1` belongs > 200 µM (inactive). `C[C@]12CCC3C(CC=C4C[C@@H](O)CC[C@@]43C)C1CCC2[C@]1(C)CCC(=O)O1` (stereo not given in full): the IC50 was > 200 µM (inactive). As to `CN(C)CCOC(=O)CCc1ccccc1`, the IC50 was > 200 µM (inactive).

`Nc1c(C(=O)NCc2ccco2)c2nc3ccccc3nc2n1Cc1ccccc1`: the IC50 was > 200 µM (inactive). To `O=C(Nc1ccc(Cl)cc1)c1ccc(S(=O)(=O)N2CCOCC2)cc1` belongs > 200 µM (inactive).

For the compound `COC(=O)c1c(C(=O)OC)c2cccc3cc(-c4ccccc4)c4ccc1c4n32`, the IC50 result is “inactive”. In the case of `NS(=O)(=O)c1ccc(NS(=O)(=O)c2ccc(NC(=O)c3ccc(-c4ccccc4)cc3)cc2)cc1`, the IC50 is > 200 µM (inactive). Turning to `CC(=O)c1ccc(NC(=O)CC2Nc3cccc4cccc(c34)NC2=O)cc1` (stereo not given), the IC50 was > 200 µM (inactive). For the compound `CC(C)(C)c1cc(-c2csc(Nc3ccccc3)[n+]2Cc2ccc(C(=O)O)cc2)cc(C(C)(C)C)c1O`, the IC50 was > 200 µM (inactive). To `CC12CCC(C(=O)NCc3ccc(Cl)cc3)(OC1=O)C2(C)C` (stereo not given) belongs > 200 µM (inactive).

Take `O=c1[nH]c2ccc(S(=O)(=O)N3CCCCC3)cc2s1`: the IC50 is > 200 µM (inactive). To `CSc1ccccc1C(=O)NC(C)c1ccc(-n2ccnc2)cc1` (stereo not given) belongs > 200 µM (inactive); to `C=CCc1cccc2cc(C(=O)Nc3ccc(CC(=O)O)cc3)c(=O)oc12`, > 200 µM (inactive); to `Cc1cc(C)n(-c2ccc(Cl)c(C(=O)Nc3cc(C(F)(F)F)ccc3Cl)n2)n1`, > 200 µM (inactive).

Regarding `Oc1c(Br)cc(Br)cc1CNc1ccc(F)cc1`, the IC50 is > 200 µM (inactive). The value for `CCCCNc1nnc(Cc2ccc(Cl)cc2)c(=O)[nH]1` was > 200 µM (inactive). As to `O=C(CCN1CCN(Cc2ccccc2)CC1)Nc1cccc(Cl)c1`, the IC50 was > 200 µM (inactive).

As for `Cc1ccc(C(=O)NC2CC3CCCC(C2)N3C(=O)NC2CCCCC2)cc1` (stereo not given), the IC50 is > 200 µM (inactive).

For `CCCCn1c(NS(=O)(=O)c2ccc(C)cc2)c(S(=O)(=O)c2ccccc2)c2nc3ccccc3nc21`, the IC50 is > 200 µM (inactive). Regarding `Cc1c(Cc2ccccc2)c(=O)oc2c(C)c(OCC(=O)N[C@@H](Cc3ccccc3)C(=O)O)ccc12`, the IC50 is > 200 µM (inactive). With `O=C(Nc1ccccc1N1CCCCC1)c1ccc(-c2cccc(Cl)c2)o1`, the IC50 is > 200 µM (inactive). For the compound `CCOC(=O)/C(C#N)=c1/s/c(=C2\C=Cc3ccccc3N2CC)c(=O)n1CC`, the IC50 is > 200 µM (inactive).

Turning to `Nc1ccc(O)c2c1C(=O)c1ccccc1C2=O`, the half-maximal inhibitory concentration (IC50) was 5.75 µM. The value for `CN(C)c1cccc2c(C=C(C#N)C#N)ccc(N(C)C)c12` was > 200 µM (inactive); that for `CCC1=Nc2cc(C(=O)O)ccc2Sc2ccccc21` was > 200 µM (inactive). Turning to `O=S(=O)(Nc1c(S(=O)(=O)c2ccccc2)c2nc3ccccc3nc2n1C1CCCCC1)c1ccccc1`, the IC50 was > 200 µM (inactive). For `Cc1ccc(NC(=O)CCC(=O)NNC(=O)c2ccccc2[N+](=O)[O-])c(C)c1`, the IC50 was > 200 µM (inactive). Consider `Cc1cc(C)c(C#N)c(Nc2ccccc2C)n1`, for which the IC50 is > 200 µM (inactive).

Regarding `CN1C(=O)NC(c2ccccc2[N+](=O)[O-])C2=C1CCCC2=O` (stereo not given), the 50% inhibitory concentration (IC50) was 5.41 µM.

In the case of `CCOC(=O)C1=C(C)N=c2s/c(=C\c3ccc(OCC(=O)O)cc3)c(=O)n2C1c1ccc(Cl)cc1` (stereo not given), the IC50 is > 200 µM (inactive). The value for `COC(=O)c1cccc(Cn2c(Cl)c(/C=N/NC(=O)c3ccccc3Cl)sc2=O)c1` was > 200 µM (inactive); that for `CC(C)COc1ccc(-c2nn(-c3ccccc3)cc2/C=C2/SC(=S)N(CC(=O)O)C2=O)cc1` was > 200 µM (inactive). Regarding `O=C(Nc1cccc(Oc2ccc(C(=O)O)c(C(=O)O)c2)c1)c1ccc(-c2ccccc2)cc1`, the IC50 is > 200 µM (inactive).

In the case of `Oc1ccc(N=Cc2ccc(OCc3ccccc3)cc2)cc1`, the IC50 was > 200 µM (inactive). Take `O=C(NCc1ccc(Cl)cc1)c1cc(-c2cccs2)on1`: the IC50 is > 200 µM (inactive). The value for `CCN(CC)c1ccc(C=N/C(C#N)=C(\N)C#N)cc1` was > 200 µM (inactive); that for `CCCCn1c(NC(=O)c2ccco2)c(S(=O)(=O)c2ccc(C)cc2)c2nc3ccccc3nc21` was > 200 µM (inactive). Regarding `O=C(Cn1cnc2scc(-c3ccccc3)c2c1=O)NCc1ccco1`, the IC50 was > 200 µM (inactive). As to `CC1=CC(C)(C)N2C(=O)C(=Nc3ccc(O)cc3)c3cccc1c32`, the IC50 was > 200 µM (inactive). Take `N#C/C(=C\c1c(F)cccc1Cl)C(=O)NC1CC1`: the IC50 is > 200 µM (inactive). Regarding `O=C(O)CCCNc1cc(N2CCN(C(=O)c3ccco3)CC2)c2noc3c2c1C(=O)c1ccccc1-3`, the IC50 is 10.9 µM. For the compound `CCC(C)[C@H](NC(=O)N1CCn2c1nc1ccccc12)C(=O)NCCc1ccc(OC)c(OC)c1` (stereo not given in full), the IC50 was > 200 µM (inactive). To `Cc1cc2cc(CNC(=O)c3ccc(S(=O)(=O)N4CCCCC4)cc3)ccc2n1C` belongs “inactive”. With `c1ccc(C(c2ccccc2)N2CCN(C(c3ccccn3)c3nnnn3C3CCCC3)CC2)cc1` (stereo not given), the IC50 is > 200 µM (inactive). Take `Cc1ccc(OCCCN2CCOCC2)cc1`: the IC50 is > 200 µM (inactive). `N#Cc1c(NC(=O)c2ccc(Br)o2)n(-c2ccccc2)c2nc3ccccc3nc12`: the IC50 is > 200 µM (inactive). For `C=CCn1c(NS(=O)(=O)c2ccccc2)c(S(=O)(=O)c2ccc(C)cc2)c2nc3ccccc3nc21`, the IC50 is > 200 µM (inactive). Take `COC/C=C/C1=CC2=CC(=O)C(C)(OC(=O)c3ccco3)C(=O)C2=CO1` (stereo not given): the IC50 is > 200 µM (inactive). As for `O=c1[nH]c(-c2ccc(F)cc2)nc2c1sc(=S)n2-c1ccccc1`, the IC50 was > 200 µM (inactive). Take `CCCCn1c(NS(=O)(=O)c2ccccc2)c(S(=O)(=O)c2ccc(C)cc2)c2nc3ccccc3nc21`: the IC50 was > 200 µM (inactive). Turning to `CN1/C(=C\C=C\C2=[N+](C)c3ccc4ccccc4c3C2(C)C)C(C)(C)c2ccccc21`, the IC50 was > 200 µM (inactive).

Consider `COc1cc(CC(=O)NCc2ccc3c(c2)OCO3)cc(OC)c1OC`, for which the IC50 is > 200 µM (inactive). On to `COc1ccc(CNC(=S)Nc2cc(OC)ccc2OC)cc1`, for which the IC50 was > 200 µM (inactive).

`CSc1n[nH]c(NCc2ccc(Cl)cc2)n1`: the IC50 was > 200 µM (inactive). `O=C(Nc1nc(-c2cc3ccccc3oc2=O)cs1)c1ccco1`: the IC50 was > 200 µM (inactive). Consider `CCCCN(Cc1cc2cc(OC)ccc2[nH]c1=O)S(=O)(=O)c1ccc(C)cc1`, for which the IC50 was > 200 µM (inactive).

With `Cc1ccc(C(=O)COc2ccccc2C(=O)Nc2ccccc2)cc1`, the IC50 is > 200 µM (inactive). On to `Nc1ccc(S(=O)(=O)Nc2ccc(S(N)(=O)=O)cc2)cc1`, for which the IC50 was > 200 µM (inactive).

On to `Fc1ccc(/C=N/NC(=S)Nc2cccnc2)cc1F`, for which the IC50 was > 200 µM (inactive). The value for `Cc1ccc(-n2cccn2)c([C@@H]2C[C@H]3CN(C)C(=O)[C@]34CCCN24)c1` was > 200 µM (inactive).
